Experimental data published in article PMC6327030 (Nature Communications, 2019).
Like-named read-outs stand apart in the source and are kept apart here.

Assays:
[1] = target: T1, baculosome-derived full-length SQLE (Homo sapiens, UniProt Q14534); test: Biochemistry assay of SQLE activity with SQLE baculosomes (LC-MS/MS detection of 2,3-oxidosqualene); assay type: biochemical; conditions: for mechanism of inhibition with respect to squalene substrate: squalene varied from 50 to 0.39 μM, fixed inhibitor concentrations
T1 construct: we overexpressed full-length SQLE in Sf9 cells using a baculovirus system; made in house; host or cells: Sf9 insect cells (baculovirus), membrane preparation (baculosomes)
Protocol: pFastBac1-SQLE was transformed into DH10Bac E. coli (Thermo Fisher) for transposition into bacmid, and positive clones were selected on a blue/white LB agar plate. Recombinant bacmid as isolated from positive clones with the PureLink Hipure Plasmid DNA miniprep kit (Thermo Fisher) and transfected into Sf9 cells (Thermo Fisher) to generate recombinant virus stocks, which were amplified further before Sf9 infection at a multiplicity of infection of two. Infected cells were harvested 72 h post infection and resuspended in phosphate buffered saline, then disrupted by sonication. The cell lysate was clarified by centrifugation at 1500× g for 10 min, the supernatant was further centrifuged at 10,000× g for another 10 min to remove cell debris; and then the supernatant was harvested and centrifuged at 100,000× g for 90 min. The pellet of SQLE baculosomes was collected and homogenized in the buffer (50 mM potassium phosphate, 20% Glycerol, pH7.0) by micro-electric homogenizer (IKA Works, Germany). The protein concentration was determined by the Bradford method. SQLE baculosomes were aliquoted and stored at −80 ℃. The abundance of SQLE in the baculosomes compared to other subcellular fractions was evaluated by immunoblotting against the N-terminal his-tag. Y195A, and Y195F mutant baculosomes were prepared as described above from Sf9 cells infected with engineered viruses.
All biochemistry assay buffers contained 100 mM Tris, 0.1% triton X-100, 1 mM EDTA, 0.1 mM FAD and 1 mM NADPH. […] The reaction was quenched by adding 100 μL of 10 mM ammonium acetate buffer, followed by addition of 600 μL ethyl acetate containing 0.4 mg/mL butylated hydroxytoluene (BHT) to prevent oxidation. The mixture was vortexed for 30 min to extract 2,3-oxidosqualene, then centrifuged at 4000 rpm for 10 min. The supernatant was transferred to a new plate for LC-MS/MS detection. […] Kinetic analysis for HLMs (Sekisui Xenotech, LLC, Kansas City, KS) was performed as for baculosomes, with HLM concentration at 0.5 mg/ml. Kinetic analysis for recombinant SQLE was performed as for baculosomes, with the addition of 1.5 μg/ml recombinant P450R (Sigma-Aldrich).
Samples were dried down under nitrogen and then reconstituted with 70 μL of 0.2 mg/mL BHT in acetonitrile. An aliquot of 7.5 μL was injected into the UPLC-MS/MS system. The instrument setup consisted of an AB Sciex API-6500 Mass Spectrometer (AB Sciex, USA) equipped with a Waters UPLC Acquity (Waters, USA). The UPLC separation was performed on an ACQUITY UPLC BEH C18 (2.1 × 50 mm, 1.7 µm, Waters) at 40 ℃. Formic acid in water (0.1%, v/v, mobile phase A) and a mixture of acetonitrile and isopropanol (80:20, v/v with 0.1% formic acid, mobile phase B) were employed as the mobile phase. An isocratic elution of 98% mobile phase B was used and run time was 1.5 min. The flow rate of mobile phase was set at 0.6 mL/min.

[2] = system: human SQLE; conditions: cited from earlier work; for IC50: previously reported
[3] = target: T2, endogenous SQLE in human liver microsomes (Homo sapiens, UniProt Q14534); test: HLM assay of SQLE activity (human liver microsomes, LC-MS/MS); assay type: biochemical
T2 construct: human liver microsomes (HLM) which have the advantage of providing endogenous SQLE; tissue Sekisui Xenotech, LLC, Kansas City, KS; host or cells: human liver microsomes
Protocol: All biochemistry assay buffers contained 100 mM Tris, 0.1% triton X-100, 1 mM EDTA, 0.1 mM FAD and 1 mM NADPH. […] The reaction was quenched by adding 100 μL of 10 mM ammonium acetate buffer, followed by addition of 600 μL ethyl acetate containing 0.4 mg/mL butylated hydroxytoluene (BHT) to prevent oxidation. The mixture was vortexed for 30 min to extract 2,3-oxidosqualene, then centrifuged at 4000 rpm for 10 min. The supernatant was transferred to a new plate for LC-MS/MS detection. […] Kinetic analysis for HLMs (Sekisui Xenotech, LLC, Kansas City, KS) was performed as for baculosomes, with HLM concentration at 0.5 mg/ml. […] (Sigma-Aldrich). […] An aliquot of 7.5 μL was injected into the UPLC-MS/MS system. The instrument setup consisted of an AB Sciex API-6500 Mass Spectrometer (AB Sciex, USA) equipped with a Waters UPLC Acquity (Waters, USA). […] Formic acid in water (0.1%, v/v, mobile phase A) and a mixture of acetonitrile and isopropanol (80:20, v/v with 0.1% formic acid, mobile phase B) were employed as the mobile phase. An isocratic elution of 98% mobile phase B was used and run time was 1.5 min. The flow rate of mobile phase was set at 0.6 mL/min.

[4] = target: T3, SQLE (118–574) (Homo sapiens, UniProt Q14534); test: Thermal shift assay, N-terminally truncated SQLE (118–574); assay type: binding; conditions: 100 μM ligands
T3 construct: to the N-terminally truncated SQLE (118–574), resulting in the selection of this construct for further studies; His6-MBP (TEV site) (N, cleaved yes); made in house; host or cells: Rosetta (DE3) E. coli
Protocol: (§1) Thermal shift assays were performed in 96-well PCR plates using an RT-PCR instrument (ABI 7500 Fast, Applied Biosystems, USA). Standard assay conditions (20 μL) contain 12.5 μL protein (1 mg/mL) in storage buffer 50 mM Tris (pH 8.0), 500 mM NaCl, 5% glycerol and 100 μM corresponding ligands, 5 μL Protein Thermal Shift^TM buffer, and 2.5 μL of the ROX dye (8 × , Protein Thermal Shift^TM Dye Kit, Applied Biosystems, USA). All experiments were performed in triplicate and reaction mixtures were pre-incubated at 4 °C for 1 h. […] For the detergent screening, the SQLE protein was buffer exchanged to 500 mM NaCl, 50 mM Tris-HCl (pH 8.0) containing different detergents using Superdex^TM 200 Increase 10/300 GL gel-filtration column (GE Healthcare, USA) and assayed as described above.

[5] = target: T4, SQLE (118-488) (Homo sapiens, UniProt Q14534); test: Thermal shift assay, SQLE (118-488); assay type: binding; conditions: 100 μM ligands
T4 construct: Thermal shift assay fluorescence signals obtained for SQLE (118-488), with and without FAD; made in house; host or cells: Rosetta (DE3) E. coli
Protocol: as §1

[6] = target: T5, recombinant N-terminally truncated SQLE (118–574) (Homo sapiens, UniProt Q14534); test: Enzymatic assay with recombinant SQLE (118–574) plus recombinant P450R; assay type: biochemical; conditions: saturating squalene, varied FAD
T5 construct: First, we used the recombinant N-terminally truncated SQLE (118–574); His6-MBP (TEV site) (N, cleaved yes); made in house; host or cells: Rosetta (DE3) E. coli
Source text: The cDNA of human SQLE (NCBI accession number: NM_003129.3) was cloned into pET28a expression vector (Supplementary Table 2). Multiple constructs were designed with six unique N-termini (starting at 1, 101, 111, 118, 124, 144) and four C-termini (ending at 488, 518, 543, 574), along with different affinity/solubilization tags expressed in Rosetta (DE3) E. coli (Shanghai Weidi Biotechnology). Soluble proteins were obtained for four of the expression constructs with N- and C-terminal boundaries corresponding to 101-574, 118-574, 101-488, and 118-488 and were used in crystallization trials. The His6-MBP-TEV-SQLE (118-574) construct in pET28a vector yielded crystals for structure determination. A detergent screen performed using thermal shift assay led to the identification of 3-[(3-cholamidopropyl)dimethylammonio]-1-propanesulfonate (CHAPS) as having the most stabilizing effect. CHAPS detergent was subsequently used for all extraction, purification and crystallization studies of SQLE protein. The plasmid bearing the sequence encoding SQLE was transformed into Rosetta (DE3) E. coli. Cells were grown at 37 °C and induced with 1 mM isopropyl β-D-1-thiogalactopyranoside for about 20 h at 15 °C in Luria Broth media. […] Protein was determined to be > 95% pure by SDS-PAGE and eluted as a monomer as assessed by SEC. […]

[7] = IC50, time-dependent inhibition, before increasing incubation time, compound incubation time varied from 0 to 6 h, starting value, 15 min reaction
[8] = baculosome-derived SQLE, 1 h pre-incubation, 100 μM squalene, read-out: IC50
[9] = compound incubation time varied from 0 to 6 h

T1 sequence (Q14534 whole entry): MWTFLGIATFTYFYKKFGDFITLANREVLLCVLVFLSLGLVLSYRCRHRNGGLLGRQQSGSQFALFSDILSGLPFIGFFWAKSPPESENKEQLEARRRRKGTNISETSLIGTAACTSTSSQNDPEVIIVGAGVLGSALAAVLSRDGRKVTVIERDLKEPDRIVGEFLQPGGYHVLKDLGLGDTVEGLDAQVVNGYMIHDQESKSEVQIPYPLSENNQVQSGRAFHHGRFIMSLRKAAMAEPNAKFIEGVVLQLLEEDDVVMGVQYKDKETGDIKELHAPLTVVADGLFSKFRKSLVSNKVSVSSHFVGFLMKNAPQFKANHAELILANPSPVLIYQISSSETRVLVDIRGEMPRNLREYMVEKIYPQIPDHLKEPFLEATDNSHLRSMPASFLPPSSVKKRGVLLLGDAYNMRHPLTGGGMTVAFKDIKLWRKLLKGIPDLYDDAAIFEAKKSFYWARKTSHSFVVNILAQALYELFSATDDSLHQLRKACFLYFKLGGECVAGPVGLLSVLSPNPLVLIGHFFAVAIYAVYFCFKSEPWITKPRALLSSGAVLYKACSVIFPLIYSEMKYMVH
T3 sequence (Q14534 118-574): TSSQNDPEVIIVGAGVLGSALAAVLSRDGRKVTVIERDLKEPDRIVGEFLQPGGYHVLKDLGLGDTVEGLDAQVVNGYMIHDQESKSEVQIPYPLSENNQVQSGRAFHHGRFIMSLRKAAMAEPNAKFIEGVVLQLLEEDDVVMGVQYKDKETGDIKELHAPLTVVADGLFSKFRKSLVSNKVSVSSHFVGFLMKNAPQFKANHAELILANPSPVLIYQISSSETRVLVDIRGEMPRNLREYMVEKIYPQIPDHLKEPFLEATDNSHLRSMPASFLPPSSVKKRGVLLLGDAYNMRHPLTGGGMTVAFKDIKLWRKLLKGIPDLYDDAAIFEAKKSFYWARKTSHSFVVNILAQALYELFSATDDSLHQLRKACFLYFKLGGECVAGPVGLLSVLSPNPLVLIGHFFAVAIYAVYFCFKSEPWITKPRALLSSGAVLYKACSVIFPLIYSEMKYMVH
T4 sequence (Q14534 118-488): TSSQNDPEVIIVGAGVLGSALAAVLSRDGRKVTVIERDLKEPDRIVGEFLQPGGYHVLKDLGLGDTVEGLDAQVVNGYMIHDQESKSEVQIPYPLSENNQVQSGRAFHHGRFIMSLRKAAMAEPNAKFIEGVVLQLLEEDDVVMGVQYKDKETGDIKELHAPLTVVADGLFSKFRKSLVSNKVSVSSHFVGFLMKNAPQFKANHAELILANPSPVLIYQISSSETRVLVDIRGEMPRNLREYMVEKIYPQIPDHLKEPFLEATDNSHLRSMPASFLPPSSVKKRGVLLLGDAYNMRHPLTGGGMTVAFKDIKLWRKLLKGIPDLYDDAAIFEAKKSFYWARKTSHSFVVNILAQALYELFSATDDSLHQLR
T2 sequence (Q14534 whole entry): as the sequence (Q14534 whole entry) above
T5 sequence (Q14534 118-574): as the sequence (Q14534 118-574) above

SMILES | IC50 [1, 7] | IC50 [1, 8] | time dependence of inhibition [1, 9] | mechanism of inhibition with respect to squalene substrate [1] | IC50 [2] | also measured
CCN(C/C=C/C#CC(C)(C)C)Cc1cccc(OCc2cc(-c3ccsc3)cs2)c1 [NB-598] | 120 nM | 63 nM | time-dependent inhibition | non-competitive inhibition | 10 to 60 nM | IC50 ([1]; IC50, time-dependent inhibition, upon increasing incubation time, compound incubation time varied from 0 to 6 h, final value, 15 min reaction): 30 nM; mechanism of action (previous report) [2]: competitive
CN(C/C=C/C#CC(C)(C)C)Cc1cccc2ccccc12 [terbinafine] |  |  |  |  |  | inhibition at 100 µM ([3]; HLM assay, at 100 µM inhibitor concentration, read-out: maximal inhibition): 65%
CCN(C/C=C/C#CC(C)(C)C)Cc1cccc(OCc2cc(-c3ccccc3)cs2)c1 [NB-598.ia] |  | > 100000 nM |  |  |  | 
Cc1cc2nc3c(=O)[nH]c(=O)nc-3n(C[C@H](O)[C@H](O)[C@H](O)COP(=O)(O)OP(=O)(O)OC[C@H]3O[C@@H](n4cnc5c(N)ncnc54)[C@H](O)[C@@H]3O)c2cc1C [FAD, flavin adenosine dinucleotide] |  |  |  |  |  | ΔTm ([4]; Supplementary Figure 1c): 2.1 °C; mean Tm ([4]; control Tm 48.0): 50.1 °C; ΔTm ([5]; Supplementary Figure 1c): 4.7 °C; mean Tm ([5]; control Tm 44.0): 48.7 °C; Km ([1]; SQLE baculosome, saturating squalene, varied FAD): 8.1 ± 0.6 µM; Km ([3]; HLMs, saturating squalene, varied FAD): 9.6 ± 0.5 µM; Km [6]: 5.2 ± 0.5 µM
CCN(CC#CC#CC(C)(C)OC)Cc1cccc(OC[Si](C)(C)c2cccc(C)c2)c1 [Cmpd-4′′.ia] |  | > 100000 nM |  |  |  | 
CCN(CC#CC#CC(C)(C)OC)Cc1cccc(OC[Si](C)(C)c2ccccc2C)c1 [Cmpd-4′′] | 800 nM | 69 nM | time-dependent inhibition | non-competitive inhibition | 10 to 60 nM | 
